We go through 15 molecules from ChEMBL document CHEMBL1154712, “Synthesis and cytotoxic activity of psorospermin and acronycine analogues in the 3-propyloxy-acridin-9(10H)-one and -benzo[b]acridin-125H-one series” (Eur J Med Chem, 2010).

SMILES strings stand for the structures.

Test [1] has as its system L1210. Kind of test: Cytotoxicity against mouse L1210 cells after 48 hrs by microculture tetrazolium assay. The format is functional, cell-based. The settings on record: L1210, 48 h.
A short description of test [2]: Cytotoxicity against human KB3-1 cells after 96 hrs by microculture tetrazolium assay. The note with it: KB 3-1, 96 h. The format is functional, cell-based.

The term IC50 denotes the midpoint of a concentration-inhibition curve. For `COc1cc(OCC2CO2)cc2c1c(=O)c1ccccc1n2C` (racemic), the IC50 worked out at 0.09 µM in test [1] and 0.12 µM in test [2]. As to `COc1cc(OCC2COC(=O)O2)cc2c1c(=O)c1cc3ccccc3cc1n2C` (racemic), the values for the IC50 in test [1] and in test [2] were 18.8 µM and 23.2 µM, respectively. On the same counts, the results for `C=CCOc1cc(OC)c2c(=O)c3ccccc3n(C)c2c1` are 13.4 µM and 10.4 µM. The like results for `COc1cc(OCC(COC(C)=O)OC(C)=O)cc2c1c(=O)c1cc3ccccc3cc1n2C` (racemic) were, in that order, 3.1 µM and 7.9 µM.

In the case of `COc1cc2c(c3c1c(=O)c1cc4ccccc4cc1n3C)C[C@H]([C@@]1(C)CO1)O2` (racemic), the IC50 was found to be 0.04 µM in test [1] and 0.08 µM in test [2]. On the same counts, the results for `COc1cc(OCC2COC(=O)O2)cc2c1c(=O)c1ccccc1n2C` (racemic) are 37.2 µM and 24.1 µM. The like results for `C=CCOc1cc(OC)c2c(=O)c3cc4ccccc4cc3n(C)c2c1` were, in that order, 33 µM and 3.7 µM. On the same counts, the results for `COc1cc(OCC(O)CO)cc2c1c(=O)c1cc3ccccc3cc1n2C` (racemic) are 79 µM and 65 µM. In turn, `COc1cc2c(c3c1c(=O)c1cc4ccccc4cc1n3C)[C@@H](OC(C)=O)[C@@H](OC(C)=O)C(C)(C)O2` (relative stereo) had an IC50 in test [2] of 0.09 µM. Take `COc1cc(OCC(O)CO)cc2c1c(=O)c1ccccc1n2C` (racemic): the IC50 turned out to be 59.8 µM in test [1] and 47.5 µM in test [2]. The like results for `COc1cc(OCC(O)COC(C)=O)cc2c1c(=O)c1ccccc1n2C` (racemic) were, in that order, 32.4 µM and 22.5 µM. Turning to `COc1cc(OCC(COC(C)=O)OC(C)=O)cc2c1c(=O)c1ccccc1n2C` (racemic), the IC50 in test [1] came out at 40.6 µM; in test [2] it was 37.8 µM.

For `COc1cc(OCC2CO2)cc2c1c(=O)c1cc3ccccc3cc1n2C` (racemic), the IC50 stood at 0.03 µM in test [1] and 0.2 µM in test [2]. On the same counts, the results for `COc1cc(OCC(O)COC(C)=O)cc2c1c(=O)c1cc3ccccc3cc1n2C` (racemic) are 6.2 µM and 5.8 µM. Take `COc1cc2c(c3c1c(=O)c1ccccc1n3C)C[C@H]([C@@]1(C)CO1)O2` (racemic): the IC50 in test [2] was 0.06 µM.
